Assay: Phototoxicity (oral dose, UVA exposure, ear erythema and oedema)
Type: in vivo
Conditions: Swiss Albino mice, UVA 4 hours for 4 consecutive days
Description: The stock solutions for different doses were prepared freshly on the day of experimentation. Appropriate concentration of each dose was chosen to give a constant dosage volume of 0.3-0.4 ml/20 g body weight of mouse. The treated mice were exposed to UVA light source immediately after dosing for 4 hours and for 4 consecutive days. The mean light intensity in the UVA chamber was adjusted to 0.9-1.2 mW/cm^2. […] A phototoxic dose is one which causes ear erythema and oeadema.

## C[C@@H]1CN(c2c(F)c(N)c3c(=O)c(C(=O)O)cn(C4CC4)c3c2F)C[C@H](C)N1 [sparfloxacin]
  phototoxic dose: 25 mg/kg
